According to paper PMC8056384 (ACS Chemical Biology, 2021):
Values joined by “and” are separate entries in the source; they are usually repeats but may differ in a detail not shown here. Equal values may be shown once.

How the values were obtained:
[1] = target: T1, hGALK1 (Homo sapiens, UniProt P51570, E253A/K252A); assay: Amplex Red fluorescence-based hGALK1 activity assay (coupled with galactose oxidase); type: biochemical; set-up: Vmaxapp, substrate ATP, with ligand (+) / Kmapp, substrate ATP, with ligand (+): unit not given here; conditions: for Kmapp, substrate ATP, with ligand (+) / Vmaxapp, substrate ATP, with ligand (+): 50 µM galactose, maximum tested concentration: 1 mM T1, 15 mM fragment 3, 2 mM 11–13; for mode of inhibition with respect to ATP: 0–250 μM ATP, best-fit model in GraphPad Prism; for inhibition at 2000 µM: 2 mM compound; for Amplex Red LLEAT: calculated cumulatively over N1 and N2
T1 construct: A hGALK1 construct, encoding full-length protein harboring the surface entropy[41] mutations K252A:E253A; His6 (N); made in house; host or cells: E. coli BL21(DE3)
T1 sequence (P51570 whole entry K252A/E253A, the tested form may be a part): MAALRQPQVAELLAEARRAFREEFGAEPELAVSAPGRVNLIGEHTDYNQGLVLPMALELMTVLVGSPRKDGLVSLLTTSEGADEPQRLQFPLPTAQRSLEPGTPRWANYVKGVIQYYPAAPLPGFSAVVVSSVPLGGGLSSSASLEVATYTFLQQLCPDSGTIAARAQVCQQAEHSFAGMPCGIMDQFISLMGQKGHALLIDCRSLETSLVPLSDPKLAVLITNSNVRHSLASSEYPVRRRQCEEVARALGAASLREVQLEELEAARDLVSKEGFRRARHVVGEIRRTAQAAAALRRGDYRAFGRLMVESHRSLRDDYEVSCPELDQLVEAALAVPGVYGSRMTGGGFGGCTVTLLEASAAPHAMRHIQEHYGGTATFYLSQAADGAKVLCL
Excerpt: Consequently, to confirm the mode of inhibition of the spiro-benzoxazole inhibitors with respect to ATP, we adopted the Amplex Red fluorescence-based assay[33],[34] by coupling the hGALK1 reaction with D. dendroides galactose oxidase (GAO; EC 1.1.3.9) to measure the level of galactose remaining after being depleted as a substrate for hGALK1. In this method, hydrogen peroxide generated by the oxidation of galactose by GAO is used by horseradish peroxidase to convert the nonfluorescent substrate Amplex Red into its highly fluorescent product resorufin; therefore, the resultant fluorescent signal is inversely proportional to hGALK1 enzyme activity. We optimized several parameters of this assay to allow measurement of hGALK1 activity for the first time (Figure S3; Supplementary Results).
The Amplex Red assay reagent contained horseradish peroxidase (EC 1.11.1.7, 0.2 U/mL), its substrate Amplex Red (10-acetyl-3,7-dihydroxyphenoxazine, 100 μM), and galactose oxidase (EC 1.1.3.9, 4 U/mL). The assay buffer used was the same as in the Kinase-Glo assay. […] Amplex Red reagent was added at a 1:1 volume to the hGALK1 reaction after 1-h incubation at RT. Fluorescence emission was measured at 585 nm, with excitation at 570 nm, after a further incubation period of 40 minutes, using a Pherastar FSX plate reader with a FI 540 590 optics module. Reactions were performed in technical triplicates for two biological replicates, and data were plotted and fitted as described for the Kinase-Glo assay except that the reaction rate, defined as total galactose consumed over the 1-h hGALK1 reaction, was determined using the following equation, where Fluorreaction = mean value of measured fluorescence of each reaction and Fluor50 = measured fluorescence with no galactose (i.e., fluorescence of 50 μM galactose): [drawing 2]

[2] = target: T1, hGALK1; assay: Kinase-Glo luminescent hGALK1 activity assay; type: biochemical; set-up: Vmaxapp, substrate galactose, with ligand (+) / Kmapp, substrate galactose, with ligand (+): unit not given here; conditions: for Kmapp, substrate galactose, with ligand (+) / Vmaxapp, substrate galactose, with ligand (+): 35 µM ATP, maximum tested concentration: 1 mM T1, 15 mM fragment 3, 2 mM 11–13; for mode of inhibition with respect to galactose: 0–250 μM galactose, best-fit model in GraphPad Prism; for inhibition at 2000 µM: 2 mM compound; for Kinase-Glo LLEAT: calculated cumulatively over N1 and N2
Description: hGALK1 activity in vitro was determined using the Kinase-Glo luminescent kinase assay (Promega), according to the manufacturer’s protocol. […] Following a 1-h RT incubation, 10 μL of Kinase-Glo Plus detection reagent was added (final assay volume: 20 μL/well), and after a further 20 minutes RT incubation, luminescence was detected using a Pherastar FSX plate reader (BMG Labtech) containing a luminescence optics module. […] All reactions were performed in technical triplicates for two different preparations of hGALK1.
Data were plotted using GraphPad Prism software; curve fitting was performed with a nonlinear least-squares regression fit to the mixed, competitive, noncompetitive, and uncompetitive inhibition models from the GraphPad Prism enzyme kinetics–inhibition equations and the best fit selected by comparison of Akaike’s Information Criterion (AICc) probability scores and extra sum-of-squares F test P values calculated by the software.

[3] = target: T2, hGALK2 (Homo sapiens, UniProt Q01415); assay: Kinase-Glo hGALK2 activity assay; type: biochemical; conditions: 1 mM compound
T2 construct: Constructs encoding full-length hGALK2 (Met1-Ala458) and hMVK (Met1-Leu396); His6-Strep-Strep tag followed by TEV protease cleavage site (N); made in house; host or cells: E. coli BL21(DE3)
T2 sequence (Q01415 1-458): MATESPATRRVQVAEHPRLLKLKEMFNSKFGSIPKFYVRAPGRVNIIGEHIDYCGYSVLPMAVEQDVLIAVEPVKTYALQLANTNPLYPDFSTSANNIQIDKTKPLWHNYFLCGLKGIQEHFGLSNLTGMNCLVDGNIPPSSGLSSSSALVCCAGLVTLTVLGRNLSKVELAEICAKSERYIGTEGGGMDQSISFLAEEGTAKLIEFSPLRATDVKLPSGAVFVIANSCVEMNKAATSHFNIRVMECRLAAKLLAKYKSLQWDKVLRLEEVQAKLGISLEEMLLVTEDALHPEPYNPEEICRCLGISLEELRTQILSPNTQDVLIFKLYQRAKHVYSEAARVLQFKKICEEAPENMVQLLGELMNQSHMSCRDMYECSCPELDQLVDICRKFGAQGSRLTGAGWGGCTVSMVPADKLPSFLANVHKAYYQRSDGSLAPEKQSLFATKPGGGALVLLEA
Description: (§1) hGALK1 activity in vitro was determined using the Kinase-Glo luminescent kinase assay (Promega), according to the manufacturer’s protocol. […] Similarly, hGALK2 activity and inhibition was measured with reactions containing 50 nM hGALK2, 100 μM N-acetylgalactosamine, and 35 μM ATP in the above-described buffer and hMVK activity and inhibition was measured with reactions containing 250 nM hMVK, 100 μM mevalonate, and 35 μM ATP in the above-described buffer. Following a 1-h RT incubation, 10 μL of Kinase-Glo Plus detection reagent was added (final assay volume: 20 μL/well), and after a further 20 minutes RT incubation, luminescence was detected using a Pherastar FSX plate reader (BMG Labtech) containing a luminescence optics module. To determine the inhibition mode with respect to galactose, 10 nM hGALK1 and 35 μM ATP in an assay buffer was added to an array of six fragment (0–15 mM) or 12 compound (0–2 mM) concentrations against six galactose concentrations (0–250 μM), with a final reaction volume of 10 μL/well dispensed into 384-well assay plates (Greiner), and measured as described above. All reactions were performed in technical triplicates for two different preparations of hGALK1. Reaction rate, defined as total ATP consumed over the 1-h hGALK1 reaction, was determined using the following equation, where Lumreaction = mean value of measured luminescence of each reaction and Lum35 = measured luminescence with no galactose (i.e., luminescence of 35 μM ATP): [drawing 1]

[4] = target: T3, hMVK (Homo sapiens, UniProt Q03426); assay: Kinase-Glo hMVK activity assay; type: biochemical; conditions: 1 mM compound
T3 construct: Constructs encoding full-length hGALK2 (Met1-Ala458) and hMVK (Met1-Leu396); His6-Strep-Strep tag followed by TEV protease cleavage site (N); made in house; host or cells: E. coli BL21(DE3)
T3 sequence (Q03426 whole entry): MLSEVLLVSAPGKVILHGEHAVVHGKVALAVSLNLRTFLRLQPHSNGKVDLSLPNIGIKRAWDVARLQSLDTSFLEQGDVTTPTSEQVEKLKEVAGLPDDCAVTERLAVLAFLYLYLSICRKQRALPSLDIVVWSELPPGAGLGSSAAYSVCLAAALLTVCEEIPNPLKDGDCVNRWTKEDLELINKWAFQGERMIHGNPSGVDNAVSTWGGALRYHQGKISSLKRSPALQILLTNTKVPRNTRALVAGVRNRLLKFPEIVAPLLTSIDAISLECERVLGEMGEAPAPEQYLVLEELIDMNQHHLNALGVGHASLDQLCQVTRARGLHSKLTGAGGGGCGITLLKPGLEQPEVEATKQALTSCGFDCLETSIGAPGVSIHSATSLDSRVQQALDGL
Description: as §1

[5] = target: T1, hGALK1; assay: Surface plasmon resonance (SPR) binding assay; conditions: hGALK1 immobilized on CM5 chip, analyte 0.195–200 μM, n = 1
Description: Purified hGALK1 (30 μg/mL), diluted in acetate buffer at pH 5, was attached via covalent coupling to a density of 13000 RU on a CM5 chip. The assay buffer was 50 mM sodium phosphate, pH 7.5, 200 mM NaCl, 0.5 mM TCEP, 5% DMSO, and 0.05% TWEEN20. A serial dilution (11 concentrations) was prepared in the above buffer for each analyte (3, 11–13) by 1:1 dilution from 200 μM to 0.195 μM, and the subsequent solutions were passed over the chip at a flow rate of 30 μL/min. Data are from an n = 1 experiment.

[6] = biological replicate N1, read-out: Amplex Red N1 IC50
[7] = biological replicate N2, read-out: Amplex Red N2 IC50
[8] = biological replicate N1, read-out: Kinase-Glo N1 IC50
[9] = biological replicate N2, read-out: Kinase-Glo N2 IC50
[10] = range over Kinase-Glo and Amplex Red assays
[11] = range over Kinase-Glo and Amplex Red assays, two biological replicates, read-out: IC50 values, range
[12] = concentration achieving 50% inhibition, IC50 not determinable, lower potency

O=C1CCCC2=C1C1(CCCC1)N=C(Nc1nc3ccccc3o1)N2 [T1, 2′-(benzo[d]oxazol-2-ylamino)-7′,8′-dihydro-1′H-spiro[cyclopentane-1,4′-quinazolin]-5′(6′H)-one, reference compound]
Kmapp, substrate ATP, with ligand (+) [1]: 63.5 ± 2.6 | Vmaxapp, substrate ATP, with ligand (+) [1]: 27.9 ± 1.5 | Kmapp, substrate galactose, with ligand (+) [2]: 32.9 ± 1.0 | Vmaxapp, substrate galactose, with ligand (+) [2]: 4.1 ± 0.5

O=C1CCCC2=C1C1(CCCCC1)N=C(Nc1nc3ccccc3o1)N2 [T2, 2′-(benzo[d]oxazol-2-ylamino)-7′,8′-dihydro-1′H-spiro[cyclohexane-1,4′-quinazolin]-5′(6′H)-one, reference compound]
mode of inhibition with respect to ATP ([1]; 50 μM galactose): competitive | IC50 ([2]; 10 nM hGALK1, 100 μM galactose, 35 μM ATP, read-out: IC50): 17 µM | mode of inhibition with respect to galactose ([2]; 35 μM ATP): non-competitive

O=C(CNc1cnc2cc(Cl)c(Cl)cc2n1)NC1CC1 [compound 11]
mode of inhibition with respect to ATP ([1]; 50 μM galactose): noncompetitive | Kmapp, substrate ATP, with ligand (+) [1]: 36.5 ± 5.8 | Vmaxapp, substrate ATP, with ligand (+) [1]: 11.1 ± 0.9 | inhibition at 2000 µM [1]: > 50% | IC50 [1, 6]: 31 µM | IC50 [1, 7]: 65 µM | Amplex Red LLEAT [1]: 0.22 kcal/mol | inhibition at 1000 µM [3]: < 10% | inhibition at 1000 µM [4]: < 10% | mode of inhibition with respect to galactose ([2]; 35 μM ATP): noncompetitive | Kmapp, substrate galactose, with ligand (+) [2]: 36.5 ± 2.1 | Vmaxapp, substrate galactose, with ligand (+) [2]: 3.7 ± 0.4 | inhibition at 2000 µM [2]: > 50% | IC50 [2, 8]: 209 µM | IC50 [2, 9]: 116 µM | Kinase-Glo LLEAT [2]: 0.19 kcal/mol | LLEAT (Astex ligand lipophilicity efficiency score), range [2, 10]: 0.19 to 0.22 kcal/mol | IC50 [2, 11]: 31 to 209 µM | Kd [5]: ~100 µM and 89 µM

COCCNC(=O)CNc1cnc2cc(Cl)c(Cl)cc2n1 [compound 12]
mode of inhibition with respect to ATP ([1]; 50 μM galactose): noncompetitive | Kmapp, substrate ATP, with ligand (+) [1]: 40.4 ± 4.7 | Vmaxapp, substrate ATP, with ligand (+) [1]: 11.8 ± 0.2 | inhibition at 2000 µM [1]: > 50% | IC50 [1, 6]: 45 µM | IC50 [1, 7]: 25 µM | Amplex Red LLEAT [1]: 0.27 kcal/mol | inhibition at 1000 µM [3]: < 10% | inhibition at 1000 µM [4]: < 10% | mode of inhibition with respect to galactose ([2]; 35 μM ATP): noncompetitive | Kmapp, substrate galactose, with ligand (+) [2]: 41.5 ± 12.4 | Vmaxapp, substrate galactose, with ligand (+) [2]: 9.4 ± 1.1 | inhibition at 2000 µM [2]: > 50% | IC50 [2, 8]: 198 µM | IC50 [2, 9]: 96 µM | Kinase-Glo LLEAT [2]: 0.23 kcal/mol | LLEAT (Astex ligand lipophilicity efficiency score), range [2, 10]: 0.23 to 0.27 kcal/mol | IC50 [2, 11]: 25 to 198 µM | Kd [5]: ~100 µM and 97 µM

COc1ccc(Cl)cc1C(=O)NC1CCN(c2ncccn2)CC1 [compound 13]
mode of inhibition with respect to ATP ([1]; 50 μM galactose): noncompetitive | Kmapp, substrate ATP, with ligand (+) [1]: 46.5 ± 4.5 | Vmaxapp, substrate ATP, with ligand (+) [1]: 14.7 ± 3.0 | inhibition at 2000 µM [1]: > 50% | IC50 [1, 12]: ~1000 µM | inhibition at 1000 µM [3]: < 10% | inhibition at 1000 µM [4]: < 10% | mode of inhibition with respect to galactose ([2]; 35 μM ATP): mixed | Kmapp, substrate galactose, with ligand (+) [2]: 143.6 ± 7.6 | Vmaxapp, substrate galactose, with ligand (+) [2]: 4.4 ± 0.4 | inhibition at 2000 µM [2]: > 50% | IC50 [2, 12]: ~1000 µM | Kd [5]: ~200 µM and ~203 µM

CCOC(=O)C1CCN(c2cnccn2)CC1 [fragment 1]
change in hGALK1 activity, strictly standardized mean difference (SSMD) ([2]; 5 mM fragment): < 0.5

CS(=O)(=O)c1nccn1Cc1cscn1 [fragment 2]
change in hGALK1 activity, strictly standardized mean difference (SSMD) ([2]; 5 mM fragment): < 0.5

O=C(Cc1ccc(Cl)cc1)Nc1ncccn1 [fragment 3]
Kmapp, substrate ATP, with ligand (+) [1]: 32.1 ± 8.4 | Vmaxapp, substrate ATP, with ligand (+) [1]: 4.2 ± 0.3 | decrease in Vmaxapp, ATP titration ([1]; fragment 0–15 mM, 50 μM galactose): 4 fold | mode of inhibition with respect to galactose ([2]; 35 μM ATP): mixed | Kmapp, substrate galactose, with ligand (+) [2]: 184.2 ± 2.1 | Vmaxapp, substrate galactose, with ligand (+) [2]: 5.1 ± 0.4 | change in hGALK1 activity, strictly standardized mean difference (SSMD) ([2]; 5 mM fragment): 2.79 | reduction of hGALK1 activity ([2]; 5 mM fragment, single-point): 24 ± 1.6% | decrease in Vmaxapp, galactose titration ([2]; fragment 0–15 mM, 35 μM ATP): 5 fold | increase in Kmapp, galactose titration ([2]; fragment 0–15 mM, 35 μM ATP): 6 fold

O=C(OCc1ccc(Cl)cc1)c1cccnc1 [fragment 4]
change in hGALK1 activity, strictly standardized mean difference (SSMD) ([2]; 5 mM fragment): < 0.5

O=C(NCCN1CCCC1=O)Nc1ccccc1 [fragment 5]
change in hGALK1 activity, strictly standardized mean difference (SSMD) ([2]; 5 mM fragment): < 0.5

Cc1ccc(C)c(OC(=O)c2ccncc2)c1 [fragment 7]
change in hGALK1 activity, strictly standardized mean difference (SSMD) ([2]; 5 mM fragment): < 0.5

COc1ccc(Cl)cc1C(=O)NCC(C)C [fragment 10]
change in hGALK1 activity, strictly standardized mean difference (SSMD) ([2]; 5 mM fragment): 0.80
